Results published in patent publication US7078403B1, “Antiviral agents” (Biota Scientific Management Pty Ltd., priority 1999, dated 2006).

Assays:
[1] = tested on: human embryo lung (MRC-5) cells; assay: Cytotoxicity (CC50 or MTC) in uninfected MRC-5 cells; settings: unit not given
HRV type 1A = assay: Inhibition of viral cytopathic effect (CPE), visual scoring or neutral red, HRV type 1A in MRC-5 cells; assay type: cell-based, human rhinovirus; settings: for Activity on Rhinovirus Type 1A EC50: HRV type 1A in MRC-5 cells, CPE inhibition; for Activity on Rhinovirus Type 1A SI: selectivity index = CC50 or MTC divided by EC50, HRV type 1A, MRC-5 cells

Row | SMILES | Activity on Rhinovirus Type 1A MTC [1] | Activity on Rhinovirus Type 1A EC50 (HRV type 1A) | Activity on Rhinovirus Type 1A SI (HRV type 1A)
1 | C=CCON=Cc1ccc(OCC2CCN(c3ccc(Cl)nn3)CC2)cc1 [Compound 30] | >1 | 0.036 µg/mL | >28
2 | CON=Cc1cc(O)cc(OCCC2CCN(c3ccc(Cl)nn3)CC2)c1 [Compound 38] | >1 | 0.69 µg/mL | >1.45
3 | CCON=Cc1cccc(OCCC2CCN(c3ccc(C)nn3)CC2)c1 [Compound 46] | >1 | 0.062 µg/mL | >16.0
4 | C=CCON=Cc1cccc(OCCC2CCN(c3ccc(C)nn3)CC2)c1 [Compound 47] | >1 | 0.066 µg/mL | >15
5 | CON=Cc1cccc(OCCC2CCN(c3ccc(C)nn3)CC2)c1 [Compound 48] | >1 | 0.016 µg/mL | >62
6 | CCON=Cc1ccc(OCCC2CCN(c3cccnn3)CC2)cc1 [Compound 49] | >1 | 0.056 µg/mL | >17.8
7 | CCO/N=C/c1ccc(OCCC2CCN(c3ccc(Cl)nn3)CC2)cc1OC [Compound 50] | >1 | 0.008 µg/mL | >121.7
8 | C=CCON=Cc1ccc(OCCC2CCN(c3ccc(C)nn3)CC2)c(C)c1 [Compound 53] | 0.667 | <0.003 µg/mL | >208
9 | CCCON=Cc1ccc(OCCC2CCN(c3ccc(C)nn3)CC2)c(C)c1 [Compound 54] | 0.663 | 0.007 µg/mL | 91
10 | CCON=Cc1ccc(OC2CCN(c3ccc(Cl)nn3)CC2)cc1 [Compound 55] | >10 | 2.68 µg/mL | >3
11 | CCON=Cc1ccc(OCCC2CCN(c3ccc(-c4ccccc4)nn3)CC2)cc1 [Compound 56] | >10 | 2.31 µg/mL | >3
12 | CCON=Cc1ccc(OCCC2CCN(c3ccc(C(F)(F)F)nn3)CC2)cc1 [Compound 58] | >1 | 0.498 µg/mL | >2
13 | Cc1ccc(N2CCC(CCOc3ccc(C=NOCC(F)(F)F)cc3)CC2)nn1 [Compound 59] | 0.56 | 0.162 µg/mL | 3.4
14 | CON=Cc1cccc(OCC2CCN(c3ccc(Cl)nn3)CC2)c1 [Compound 60] | >1 | 0.183 µg/mL | >17
15 | CCON=Cc1cccc(OCC2CCN(c3ccc(Cl)nn3)CC2)c1 [Compound 61] | >1 | 0.058 µg/mL | >14
16 | C=CCON=Cc1cccc(OCC2CCN(c3ccc(Cl)nn3)CC2)c1 [Compound 62] | >1 | 0.067 µg/mL | >14
17 | C=CCON=Cc1ccc(OCCC2CCN(c3ccc(OC)nn3)CC2)cc1 [Compound 63] | >1 | 0.06 µg/mL | >15
18 | CCON=Cc1ccc(OCCN2CCN(c3cccnn3)CC2)cc1 [Compound 64] | >1 | 0.05 µg/mL | >17
19 | CCON=Cc1cccc(OCCN2CCN(c3cccnn3)CC2)c1 [Compound 65] | >1 | 0.21 µg/mL | >4.5
